The text below walks through data of patent publication US6780418B1, “Reagents and immunoassay for the detection and quantitative determination of mycothiol and precursors thereof” (The Regents of the University of California, priority 1997, dated 2004).

In one data set the test system is anti-mycothiol antibody. Put plainly: ELISA of Example 4: thiol bound to maleimide-activated BSA, detected with affinity-purified anti-MSH antibody. The class given is binding, rabbit. Particulars: for ELISA result (recognition by the anti-mycothiol antibody): thiol at the 10 pmol level. Here is the method: Known amounts of pure MSH (typically from 0 to 1 pmol/well) were reacted with maleimide-activated BSA (Pierce); maleimide activation levels were 16-19 mol maleimide per mol BSA. The maleimide-activated BSA was reconstituted to 10 mg/ml and this stock solution stored at −70° C. until needed. The stock solution was diluted to a working concentration of 5 ng/μl just before use and kept chilled on ice. MSH from the concentrated stock solution in 0.1% TFA was diluted into TBS (Tris-buffered saline: 0.1 M Tris, pH 7.3, 0.15 M NaCl, 0.04% NaN3) on ice and the diluted samples (40 μl per well) immediately added to the maleimide-activated BSA (60 μl per well). A “zero” standard consisted of TBS in place of an MSH solution. In practice, 168 μl of thiol standard were added to 252 μl of maleimide-activated BSA solution. Samples of unknown thiol content were reacted with maleimide-activated BSA in the same manner, providing a small excess volume for pipetting of quadruplicate samples of 100 μl per well. After 2-hour incubation at room temperature, the thiol-BSA samples were aliquoted (100 μl per well) into Immulon-4 microplate wells and allowed to bind overnight at 4° C. Unbound protein was removed by gentle aspiration with mild vacuum and the wells blocked for 2 hours at room temperature with 1% v/v fish-skin gelatin in TBS. The wells were drained, washed once with TBST (TBS plus 0.05% Tween-20), and drained. Washes involved filling wells to the top with wash buffer followed by gentle aspiration to drain the wells. Primary antibody (affinity-purified anti-MSH, 100 μl per well) was added and the plate incubated for 4 hours at room temperature. The wells were drained, washed twice with TBST, and drained. Secondary antibody (goat anti-rabbit [whole IgG] F(ab′)2 fragments conjugated to bovine intestinal alkaline phosphatase, 100 μl per well) was added and the plate incubated for 1 hour at room temperature. The wells were drained, washed twice with TBST, twice with TBS, and drained. The alkaline phosphatase substrate (3.8 mM p-nitrophenylphosphate in 0.2 M Tris, pH 9.8, 200 μl per well) was added and the plate incubated 30 minutes at room temperature. The reaction was quenched by addition of 50 μl per well stop solution (4 N NaOH). The plate was read at 405 nm on a microplate reader (Model EL311, Bio-Tek Instruments) that was programmed to automatically subtract blank values read from wells that received only the blocking agent, wash solutions, p-nitrophenyl phosphate, and stop solution.
Since reaction of typical cellular constituents with maleimide-BSA is largely limited to thiols, it was considered important to ascertain whether any typical biological thiols would produce false-positive assay results.
In order to test whether the anti-mycothiol antibody recognizes component parts of the mycothiol molecule we also tested the ELISA on N-acetyl-L-cysteine, L-cysteinyl-glucosamine, (2-L-cysteinyl)amido-2-deoxy-α-D-glucopyranose), and N-acetyl-L-cysteinyl-glucosamine (2-N-acetyl-L-cysteinyl)amido-2-deoxy-α-D-glucopyranose).
On the technique in general: ELISA stands for enzyme-linked immunosorbent assay.

Data set [1] has as its target ATP-dependent ligase activity (Mycolicibacterium smegmatis, UniProt A0QZY0). As to the kind of experiment: Assay of ATP-dependent ligase activity with GlcN-Ins plus Cys/AcCys in cell extract supernatant. The class given is biochemical, M. smegmatis. Particulars: for MSH content / Cys-GlcN-Ins concentration: 100 μM substrate, 50 μM GlcN-Ins, 1 mM ATP; for Cys-GlcN-Ins concentration: pH 7.5, 60 min.

A further data set has as its system M. smegmatis mc^2155. As to the kind of experiment: Effect of nutrient supplementation upon mycothiol intermediate levels and growth. The class given is cell-based, Mycobacterium smegmatis. Here is the method: To test whether an increase in cellular Ins content would influence the levels of MSH or potential MSH intermediates, we examined M. smegmatis mc^2155 incubated with Ins. We initially tested Ins uptake by adding 37 μM ^14C-inositol to a culture at A600=1.0 and determining the loss of radiolabel from the medium and its appearance in cells. After 2.5 h, 77% of the counts had been lost from the medium to the cells, showing that M. smegmatis efficiently imports inositol. Next we harvested cells after growth to mid log phase, resuspended them at A600=1.05 in Middlebrook 7H9 media with glucose and 1 MM Ins at 37° C., and took samples for analysis at 0, 0.5 and 2.5 h (FIG. 17A).
To test whether changes in cellular Cys levels would influence MSH or MSH intermediates, we incubated cells in medium containing 10 mM AcCys. Since AcCys is readily taken up by passive diffusion we expected this to produce markedly elevated levels of cellular AcCys and, through deacylation, Cys. […] The Cys-GlcN-Ins content was elevated 20-fold over normal immediately after the start of incubation but then fell a factor of 70 over the next 2.5 h. Least affected was the MSH content which was elevated ˜40% after 2.5 h.

Data set [2] is classed as physicochemical. Here is the method: The crude extract was purified by reversed-phase HPLC on a preparative C 18 column, 25 mm×250 mm (Vydac) by isocratic elution with 0.1% trifluoracetic acid (TFA) in ultrapure water at a flow rate of 10 ml/min. Under these conditions MSH eluted as the free thiol at 8 minutes and as its disulfide (MSSM) at 12 minutes. Thiol concentration was determined by titration with DTNB. Purified MSH was stored as a concentrated (0.11 M) stock solution in 0.1% TFA (aqueous), frozen at −70° C.
To produce biotinylated MSH suitable for use as a standard, the following procedure was carried out: 5.0 μL of 3.7 mM pure MSH in 0.1% TFA was added to 12.3 μL 1.5 mM MPB in DMSO/acetonitrile/100 mM phosphate buffer, pH 7.0 (1:4:5). The mixture was allowed to react 1 hour at room temperature. To determine the extent of biotinylation, unreacted MSH was measured by titration with DTNB. The standard was stored in 1.0 μL aliquots frozen at −70° C. For use in ELISA analyses, the standard was diluted to a concentration of 1.0 μM in Tris-buffered saline, pH 7.3, containing 0.04% w/v sodium azide, 0.05% v/v Tween 20 and 0.1% w/v BSA (TBSTB); this solution was stable for several (>6) months when stored refrigerated as indicated by consistency of ELISA measurements.

Sequence of ATP-dependent ligase activity (A0QZY0 whole entry): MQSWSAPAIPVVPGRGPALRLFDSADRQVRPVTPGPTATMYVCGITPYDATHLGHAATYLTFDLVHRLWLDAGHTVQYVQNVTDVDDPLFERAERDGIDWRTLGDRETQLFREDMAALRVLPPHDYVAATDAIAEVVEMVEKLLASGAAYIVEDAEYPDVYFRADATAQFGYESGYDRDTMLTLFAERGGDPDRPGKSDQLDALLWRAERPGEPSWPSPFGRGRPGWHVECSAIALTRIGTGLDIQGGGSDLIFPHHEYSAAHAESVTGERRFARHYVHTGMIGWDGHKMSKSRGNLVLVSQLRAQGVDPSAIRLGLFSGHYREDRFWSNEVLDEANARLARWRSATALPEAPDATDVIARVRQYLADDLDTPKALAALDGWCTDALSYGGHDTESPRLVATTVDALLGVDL

As to `N[C@@H](CCC(=O)N[C@@H](CS)C(=O)NCC(=O)O)C(=O)O` [glutathione, reference compound], in the data set on anti-mycothiol antibody, the “ELISA result (recognition by the anti-mycothiol antibody)” value (“ELISA result” below) was “negative”.

With `CC(=O)N[C@@H](CS)C(=O)O` [AcCys, N-acetyl-cysteine], the “ELISA result” value with anti-mycothiol antibody is reported as “negative”. For the same compound, the “[Cys]/[AcCys]” value in data set [1] (100 μM AcCys, by 60 min) is on record as roughly 3. The MSH content in data set [1] (60 min) came out at 15 µM. For the same compound, the Cys-GlcN-Ins concentration in data set [1] was determined as 20 µM. In the data set with M. smegmatis mc^2155 (10 mM AcCys, 2.5 h), the effect on growth result was “significantly inhibits growth”. The MSH content elevated with M. smegmatis mc^2155 (10 mM AcCys, after 2.5 h) is roughly 40%. In addition, in the data set with M. smegmatis mc^2155 (10 mM AcCys, immediately after the start of incubation), the “Cys-GlcN-Ins content elevated over normal” value turned out to be 20 fold. Also, the “change of A600 value” in the data set on M. smegmatis mc^2155 (10 mM AcCys, over the 2.5 h incubation period) is given as 5%. Besides, the “fall of Cys-GlcN-Ins content (factor)” value in the data set with M. smegmatis mc^2155 (10 mM AcCys, over the next 2.5 h) turned out to be 70. Moreover, in the data set with M. smegmatis mc^2155 (medium containing 10 mM AcCys), the Cys level increased stood at 50 fold, the H2S level entry is recorded as “roughly doubled”, the “cellular AcCys level elevated over the normal level” value was 1000 fold and the “decrease in GlcN-Ins content” value is reported as 5- to 10 fold.

As to ^14C-inositol [reference compound], the “counts lost from the medium to the cells (uptake)” value in the data set with M. smegmatis mc^2155 (37 μM, culture at A600=1.0, after 2.5 h) worked out at 77%.

For `CC(C)(CO)[C@@H](O)C(=O)NCCC(=O)NCCS` [pantetheine, reference compound], the “ELISA result” value with anti-mycothiol antibody is reported as “negative”.

For the compound `CC(=O)N[C@@H](CS)C(=O)N[C@@H]1[C@@H](O)[C@H](O)[C@@H](CO)O[C@@H]1O` [AcCys-GlcN, 2-(N-acetyl-L-cysteinyl)amido-2-deoxy-α-d-glucopyranoside], the “sensitivity of the assay relative to that for MSH” value in the data set on anti-mycothiol antibody (of that for MSH) is “about 4%”. Besides, in the data set on anti-mycothiol antibody, the “ELISA result” value was “positive”.

On to `N[C@@H](CS)C(=O)O` [Cys, L-cysteine], for which the “ELISA result” value in the data set with anti-mycothiol antibody is given as “negative”. Besides, the MSH content came to 15 µM in data set [1] (0 min) and 13 µM in data set [1] (60 min). Also, the Cys-GlcN-Ins concentration in data set [1] was determined as 26 µM.

For `O[C@H]1[C@H](O)[C@@H](O)[C@H](O)[C@@H](O)[C@H]1O` [Ins, myo-inositol], the “MSH and H2S levels” value in the data set on M. smegmatis mc^2155 (1 mM Ins, 37° C., 0 to 2.5 h) is on record as “did not change to a significant extent”. The “GlcN-Ins content relative to normal” value is recorded as “about half normal” in the data set on M. smegmatis mc^2155 (1 mM Ins, 37° C., at 0.5 h); “returning to normal” in the data set on M. smegmatis mc^2155 (1 mM Ins, 37° C., at 2.5 h); “more than 3 fold” in the data set with M. smegmatis mc^2155 (1 mM Ins, 37° C., initially (0 h)). Besides, the “increase of A600 value” in the data set with M. smegmatis mc^2155 (1 mM Ins, over the 2.5 h incubation) was 40%.

`N[C@@H](CS)C(=O)N[C@@H]1[C@@H](O)[C@H](O)[C@@H](CO)O[C@@H]1O` [Cys-GlcN, 2-(L-cysteinyl)amido-2-deoxy-α-D-glucopyranoside]: the “ELISA result” value in the data set with anti-mycothiol antibody was “negative”.

Consider `CC(=O)N[C@@H](CS)C(=O)N[C@H]1[C@@H](OC2[C@H](O)[C@H](O)C(O)[C@H](O)[C@H]2O)O[C@H](CO)[C@@H](O)[C@@H]1O` (stereo partly drawn) [MSH, 1-D-myo-inosityl-2-(N-acetyl-L-cysteinyl)amido-2-deoxy-α-D-glucopyranoside], for which the stability on storage result in data set [2] is “stable as the free thiol for many months”.

For the compound `CC(C)(COP(=O)(O)OP(=O)(O)OC[C@H]1O[C@@H](n2cnc3c(N)ncnc32)[C@H](O)[C@@H]1OP(=O)(O)O)[C@@H](O)C(=O)NCCC(=O)NCCS` [coenzyme A, reference compound], the “ELISA result” value in the data set with anti-mycothiol antibody is “negative”.
